Holding throughout (assay type): in vivo
Experiment [1] concerns δSgcd−/− mouse model. Nature of the experiment: Autonomic function by radiotelemetry in δSgcd−/− mouse model of limb-girdle muscular dystrophy. The settings on record: Sgcd−/− mice, C21 0.03 mg/kg/day SC osmotic minipump for eight weeks. On the procedure: (§1) The effect of C21 was evaluated in a δSgcd−/− mouse model, which is a genetically modified model to imitate limb-girdle muscular dystrophy (LGMD). At 3 weeks of age, δSgcd−/− mice and control mice were administrated C21 (0.03 mg/kg/day, osmotic minipump, SC) or vehicle for eight weeks. Data from conscious mice were collected during the last week of treatment. At the end of the experiment, tissues were harvested for histopathology and molecular gene expression measurements.
(§2) A radiotelemetry probe (PC10-DSI) that enabled measurement of arterial blood pressure (BP), heart rate (HR) and locomotor activity was inserted into the thoracic aorta through the left common carotid artery under 2% isoflurane anesthesia when the mice were 9 weeks of age. When the mice reached 11-12 weeks of age, changes in BP, HR, and locomotor activity were measured over a minimum of 24 hours at a sampling rate of 500 Hz. In addition, BP was continuously recorded at a high sampling frequency of 2000 Hz for 1-2 hours, to collect data for assessment of spontaneous baroreflex sensitivity (sequence technique), sympathetic tone (HR changes with propranolol) and vagal tone (HR changes with methylatropine).

The test system of experiment [2] is δSgcd−/− mouse model. Nature of the experiment: Spontaneous locomotor activity by radiotelemetry in δSgcd−/− mouse model. The settings on record: sgcd−/− mice, C21 0.03 mg/kg/day SC osmotic minipump for eight weeks (FIG. 2). On the procedure:
as §1, §2

In experiment [3] the test system is δSgcd−/− mouse model. Description: Cardiac function by echocardiography in δSgcd−/− mouse model. The settings on record: older-aged sgcd−/− mice, echocardiography (FIG. 3). On the procedure: The effect of C21 was evaluated in a δSgcd−/− mouse model, which is a genetically modified model to imitate limb-girdle muscular dystrophy (LGMD). […] Data from conscious mice were collected during the last week of treatment. At the end of the experiment, tissues were harvested for histopathology and molecular gene expression measurements.
Echocardiography was performed in telemeter-implanted mice using Philips Sonos 5500 clinical imager in mice sedated with midazolam.

In the case of `CCCCOC(=O)NS(=O)(=O)c1sc(CC(C)C)cc1-c1ccc(Cn2ccnc2)cc1` [Compound C21, N-butyloxycarbonyl-3-(4-imidazol-1-ylmethylphenyl)-5-iso-butylthiophene-2-sulfonamide], the baroreflex sensitivity entry in the experiment with δSgcd−/− mouse model [1] (compared to sgcd−/− placebo treated mice (FIG. 1)) is listed as “increase”. In addition, the vagal tone entry in the experiment with δSgcd−/− mouse model [1] (compared to sgcd−/− placebo treated mice, HR changes with methylatropine (FIG. 1)) was “increase”. Further, in the experiment on δSgcd−/− mouse model [1] (compared to sgcd−/− placebo treated mice, HR changes with propranolol (FIG. 1)), the sympathetic tone result is reported as “decreased”. Further, in the experiment with δSgcd−/− mouse model [2], the spontaneous locomotor activity entry is “increased the spontaneous locomotor activity to levels comparative to control animals”. The “cardiac function measured as end diastolic volume, end systolic volume and ejection fraction” value in the experiment on δSgcd−/− mouse model [3] was “improved the cardiac function”.

Values taken from US11931341B2, “Compositions and methods for the treatment and prevention of muscular dystrophy” (University of Iowa Research Foundation, priority 2018, dated 2024).
